Test results: US12168665B2, “Substituted imidazo[l,2-a]pyrazines and pyrazino[l,2-a] pyrimidines as topical agents for dermatological applications” (Genesis Molecular Technologies, Inc., priority 2020, dated 2024)
Entries after “also recorded” stand apart in the source; their conditions may differ. Like-named read-outs stand apart in the source and are kept apart here. One block for each molecule: values may come before it.

Legend:
[1] = tested on: TCF/LEF reporter activity; assay: Wnt/driven TCF/LEF reporter (Luc) activity in HEK293 cell line assay; format: cell-based; details: TCF/LEF reporter (Luc)-HEK293 cells, LiCl and mouse Wnt3a stimulation, read-out: IC50 value of compounds against TCF/LEF reporter activity
Protocol: Assay of Wnt/driven TCF/LEF reporter (Luc) activity in a stably transfected cell line. The Wnt/driven TCF/LEF reporter (Luc) activity in a stably transfected cell line assay was performed at BPS Bioscience (San Diego, CA 92121, USA). In brief, TCF/LEF reporter (Luc)-HEK293 cells are harvested from culture in growth medium and seeded at a density of about 35,000 cells per well into a white clear-bottom 96-well microplate in 80 μL of assay medium. 20 μL of 50 mM LiCl solution in assay medium are added to each well (final concentration 10 mM), and cells are incubated at 37° C. in a CO2 incubator for 16 hours. 10 μL of threefold serial dilution of mouse Wnt3a in assay medium are added to each stimulated well. The plate is incubated at 37° C. in a CO2 incubator for 6 hours. 100 μL of ONE-Step™ Luciferase Assay buffer per well are added and the plate is shaken for 30 min prior to measuring luminescence using a luminometer.
Exemplary compounds, wherein Y is hydrogen, of the present invention were tested for Wnt/driven TCF/LEF reporter (Luc) activity in HEK293 cell line assay. […] The positive control compound for this assay is IWR-1-endo, which is known in the art as a non-CBP/β-catenin Wnt antagonist, which stabilizes Axin-dependent β-catenin destruction (Chen, B., et al., Nat. Chem. Biol. 2009; 5(2):100-107).

[2] = tested on: CBP/β-catenin (Wnt-driven luciferase activity); assay: SuperTOPFLASH cell-based luciferase assay (Hek293, STF1.1); details: Homo sapiens; Hek293 STF1.1 cells; tested at 2.5, 5, 10 and 20 μM
Protocol: SuperTOPFLASH Cell-based Luciferase Assay. Hek-293,STF1.1 cells are maintained in DMEM, 10% FBS, Pen-Strep supplemented with 200 μg/mL G418. On the day prior to assay, cells are split into a white, opaque 96-well plate at 10,000 cells per well in 50 μL of complete medium without G418 (for screening of Wnt-signaling inhibitors, G418 can be left out during screening process). After allowing the cells to stabilize and attach overnight, 40 μL of complete medium (without G418) containing 2.5× final concentration of compound or DMSO control is added to the cells and allowed to incubate for 1 hour at 37° C., 5% CO2 prior to adding […] of a 100 mM LiCl solution prepared in complete medium (without G418). After 24 hours, 100 µL of BrightGlo™ (Promega, Cat. #: G7573) is added to each well and the plate is shaken for 5 minutes prior to reading on the Perkin-Elmer EnVision™ Plate Reader. […]

[3] = Stability by analytical HPLC analysis; format: physicochemical
Protocol: Analytical HPLC analysis was performed on an Agilent 1100 HPLC with a Phenomenex Luna C18 (2) column (3 micron, 150×4.6 mm id) at a flow rate of 0.6 mL/min, eluting with a binary solvent system A and B using a 35%-70% B in 20 min and then 70%-95% B in 5 min (gradient elution 1), or 70%-95% B in 25 min and then 95%-100% B in 3 min (gradient elution 2) (A: Milli-Q water with 0.1% TFA; B: CH3CN with 0.1% TFA). NMR spectra were recorded on a Bruker AV-300 300 MHz NMR instrument using DMSO-d6 or CDCl3 with TMS as an internal standard. Mass spectra data was obtained with Bruker Esquire Liquid Chromatography-Ion Trap Mass Spectrometer.
As is readily apparent, compound 6 is stable at room temperature both in a solid form and in organic solvents (e.g., CH3CN, and CH3OH).

human skin = assay: Cosmetic evaluation on human skin, topical formulation; format: in vivo; details: 0.15% wt./wt. topical formulation twice daily, 8 weeks
Source text: For cosmetic evaluation, compound 6 (0.15% wt./wt.) formulated in an aqueous based vehicle was topically applied twice daily (0.25 g formulation per application) during an 8-week testing period according to the following daytime/nighttime regimen.
During the study, subjects used no other skin care regimen. Prior to application of the test formulation, subjects washed their faces with Purpose cleanser, rinsed and then dry patted their faces. For each daytime and each nighttime application, 0.25 g of the test formulation (2 pumps from an applicator) was then applied to the entire face, around the eyes and onto the neck. Photographs (without any face and eye make-up), and self-assessment was performed before and after the 8-week period.

[4] = animal toxicity studies and clinical studies; cited from earlier work
[5] = tested on: hapten-induced atopic dermatitis-like dermatitis; details: preclinical study (Matsuda-Hirose 2019); cited from earlier work

Structure (SMILES): O=C1[C@H](Cc2ccc(O)cc2)N2C(=O)[C@H](CO)N(C(=O)NCc3ccccc3)[C@H]2CN1Cc1cccc2ccccc12 [Compound 4, (2S,5S,8a5)-N-benzyl-5-(4-hydroxybenzyl)-2-(hydroxymethyl)-7-(naphthalen-1-ylmethyl)-3,6-dioxohexahydroimidazo[1,2-a]pyrazine-1(5H)-carboxamide]
IC50 ([1]; Homo sapiens): 11.2 µM

Structure (SMILES): O=C1[C@H](Cc2ccc(O)cc2)N2C(=O)[C@@H](CCO)N(C(=O)NCc3ccccc3)[C@H]2CN1Cc1cccc2ccccc12 [Compound 5, (2R,5S,8a5)-N-benzyl-5-(4-hydroxybenzyl)-2-(2-hydroxyethyl)-7-(naphthalen-1-ylmethyl)-3,6-dioxohexahydroimidazo[1,2-a]pyrazine-1(5H)-carboxamide]
IC50 ([1]; Homo sapiens): > 25 µM

Structure (SMILES): CCCCCCCCCCCC(=O)OC[C@@H]1CC(=O)N2[C@H](CN(Cc3cccc4ccccc34)C(=O)[C@@H]2Cc2ccc(O)cc2)N1C(=O)NCc1ccccc1 [Compound 6, (2S,6S,9aS)-1-(benzylcarbamoyl)-6-(4-hydroxybenzyl)-8-(naphthalen-1-ylmethyl)-4,7-dioxooctahydro-2H-pyrazino[1,2-a]pyrimidin-2-yl)methyl dodecanoate]
Degradation product detected by analytical HPLC ([3]; after 4 days at room temperature): No degradation product | Stability at room temperature ([3]; solid form and organic solvents (CH3CN, CH3OH), analytical HPLC): stable | Improvement of skin appearance (wrinkles, redness) (human skin): improvement of skin appearance (e.g., reducing the appearance of wrinkles and redness) is achieved; also recorded: Skin improvement (e.g., reducing the extent and appearance of wrinkles) was visible

Structure (SMILES): O=C1[C@H](Cc2ccc(O)cc2)N2C(=O)CCN(C(=O)NCc3ccccc3)[C@H]2CN1Cc1cccc2ccccc12 [ICG-001]
Safety at effective levels [4]: extremely safe | Effect on hapten-induced atopic dermatitis-like dermatitis [5]: prevents the emergence of hapten-induced atopic dermatitis-like dermatitis

Structure (SMILES): O=C(Nc1cccc2cccnc12)c1ccc(N2C(=O)[C@@H]3[C@H](C2=O)[C@@H]2C=C[C@H]3C2)cc1 [IWR-1-endo, reference compound]
IC50 [1]: 0.2 µM

Next, values leading:

IC50 ([1]; Homo sapiens): > 25 µM
Structure (SMILES): O=C1[C@H](Cc2ccc(O)cc2)N2C(=O)C[C@H](CO)N(C(=O)NCc3ccccc3)[C@H]2CN1Cc1cccc2ccccc12 [Compound 2, (2R,6S,9aS)—N-benzyl-6-(4-hydroxybenzyl)-2-(hydroxymethyl)-8-(naphthalen-1-ylmethyl)-4,7-dioxohexahydro-2H-pyrazino[1,2-a]pyrimidine-1(6H)-carboxamide]

IC50 ([1]; Homo sapiens): 16 µM | IC50 [2]: 2.5 µM
Structure (SMILES): O=C1[C@H](Cc2ccc(O)cc2)N2C(=O)C[C@@H](CO)N(C(=O)NCc3ccccc3)[C@H]2CN1Cc1cccc2ccccc12 [Compound 3, (2S,6S,9aS)—N-benzyl-6-(4-hydroxybenzyl)-2-(hydroxymethyl)-8-(naphthalen-1-ylmethyl)-4,7-dioxohexahydro-2H-pyrazino[1,2-a]pyrimidine-1(6H)-carboxamide]
